Data reported in patent US20260070917A1, “CYCLIN DEPENDENT KINASE DEGRADERS AND METHODS OF USE THEREOF” (Differentiated Therapeutics Inc, priority 2023, published 2026).

Legend:
Assay type in all cases: cell-based
CDK2 = biological target: T1, CDK2 (Homo sapiens, UniProt P24941); test: HiBit Assay Protocol for CDK2 (HIBIT protein quantification, degradation); details: HEK293-CDK2-Hibit cells, compound treatment for 6 hours; for DC50: ABS DC50
T1 construct: host or cells: HEK293-CDK2-Hibit
Summary of the method: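 HEK293 cells expressing HiBiT-tagged CDK2 were seeded overnight, then treated 6 h with a 3-fold, 10-point compound dilution series. CDK2 levels were read as luminescence after lytic HiBiT/LgBiT detection, normalised to DMSO-only and medium-only controls, and DC50 derived by curve fitting.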

CCNE1 = biological target: T2, CCNE1 (Homo sapiens, UniProt P24864); test: HiBit Assay Protocol for CCNE1 (HIBIT protein quantification, degradation); details: HEK293-CCNE1-Hibit cells, compound treatment for 6 hours
T2 construct: host or cells: HEK293-CCNE1-Hibit
T2 sequence (P24864 whole entry): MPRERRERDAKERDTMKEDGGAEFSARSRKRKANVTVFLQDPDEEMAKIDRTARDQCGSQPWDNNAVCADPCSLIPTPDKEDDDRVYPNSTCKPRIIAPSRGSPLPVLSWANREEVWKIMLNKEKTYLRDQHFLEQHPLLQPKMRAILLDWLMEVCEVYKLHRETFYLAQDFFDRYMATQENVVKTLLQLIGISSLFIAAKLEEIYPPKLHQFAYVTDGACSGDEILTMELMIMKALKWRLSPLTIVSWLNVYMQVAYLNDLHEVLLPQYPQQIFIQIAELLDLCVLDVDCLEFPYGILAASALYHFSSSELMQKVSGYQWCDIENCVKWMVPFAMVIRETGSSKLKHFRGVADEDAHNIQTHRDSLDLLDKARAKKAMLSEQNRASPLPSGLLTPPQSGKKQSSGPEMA
Summary of the method: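 HEK293 cells expressing HiBiT-tagged CCNE1 were seeded overnight, then treated 6 h with a 3-fold, 10-point compound dilution series. HiBiT levels were read by lytic LgBiT luminescence and normalised to DMSO-only (high) and medium-only (low) controls. DC50 was derived by curve fitting.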

CDK9 = biological target: T3, CDK9 (Homo sapiens, UniProt P50750); test: HiBit Assay Protocol for CDK9 (HIBIT protein quantification, degradation); details: HEK293-CDK9-Hibit cells, compound treatment for 6 hours; for Dmax: 6 h, read-out: CDK9 HIBIT Protein Quantification Maximum; for DC50: ABS DC50
T3 construct: host or cells: HEK293-CDK9-Hibit
T3 sequence (P50750 whole entry): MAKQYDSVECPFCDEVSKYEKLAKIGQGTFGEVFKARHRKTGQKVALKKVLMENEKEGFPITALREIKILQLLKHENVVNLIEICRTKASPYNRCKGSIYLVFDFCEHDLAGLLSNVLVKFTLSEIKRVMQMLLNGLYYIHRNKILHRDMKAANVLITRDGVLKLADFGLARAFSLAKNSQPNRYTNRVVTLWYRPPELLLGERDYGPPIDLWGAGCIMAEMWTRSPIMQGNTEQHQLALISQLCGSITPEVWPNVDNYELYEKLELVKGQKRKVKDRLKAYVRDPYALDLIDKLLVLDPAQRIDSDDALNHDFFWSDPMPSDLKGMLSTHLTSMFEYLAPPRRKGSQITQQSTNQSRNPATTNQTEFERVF
Protocol: HiBit Assay Protocol for CDK9
• 1. The culture medium for HEK293-CDK9-Hibit cell was prepared using DMEM with 10% FBS. • 2. Cells were cultivated in T-75 flasks in a cell culture incubator set at 37° C., 5% CO2, 95% relative humidity. Cells were allowed to reach 80-90% confluence before detaching and splitting. • 3. Cultivated cells were rinsed in T-75 flasks with 5 mL PBS. Aspirated off. Added 1.5 mL trypsin, and incubated the cells at 37° C. for approximately 5 minutes or until the cells detached and floated. • 4. Trypsin was inactivated by adding excess serum containing medium. • 5. Cells were harvested from flask into cell culture medium and then the cell number was counted. HEK293-CDK9-Hibit cells were seeded into 384-well plate (cell density: 1.6×10^5 cells/well/50 uL medium) in DMEM medium according to the plate map below and were incubated overnight at 37° C. and 5% CO2. • Note: Cell Cultured Medium: 90% DMEM+10% FBS+1% Penicillin-Streptomycin Liquid
• 1. Test compounds were dissolved at 3 mM DMSO stock solution. Transferred 45 uL of stock solution to a 384 pp-plate. Perform 3-fold, 10-point dilution via transferring 15 uL compound into 30 uL DMSO by using TECAN liquid handler. • 2. The plates were spinned at room temperature at 1,000 RPM for 1 minute. • 3. Transferred 50 nL of diluted compound from compound source plate into the cell plate by Echo. • 4. After compound treatment for 6 hours, removed the plate from incubators and equilibrated at room temperature for 15 minutes. Prepared the HiBit reagent consists of the following ratios: 10 mL of Nano-Glo®-HiBiT Lytic Buffer, 200 uL of Nano-Glo®-HiBiT Lytic Substrate and 100 uL of LgBiT Protein, mixed thoroughly. Added 20 uL of HiBit reagent into each well and spinned the plates at room temperature at 1,000 RPM for 1 minute to be detected. Plates were then shaken at 600 RPM at room temperature for 20 minutes, and read by EnVision. • 5. The inhibition activity was calculated following the formula below:
[formula] • Note: Where HC was obtained from cells treated with 0.1% DMSO only; LC was obtained from culture medium only. • 6. The ABS DC50 was calculated by fitting the Curve using Xlfit (v5.3.1.3), equation 201: […]

Compound | CDK2 HIBIT Protein Quantification Maximum (CDK2) [%] | DC50 (CDK2) [nM] | CCNE1 HIBIT Protein Quantification Maximum (CCNE1) [%] | Dmax (CDK9) [%] | DC50 (CDK9) [nM]
CC1CCCC1N1C(=O)C2(CC2)c2cnc(NC3CCN(S(=O)(=O)N4CC5CN(C(=O)CCCc6cccc7c6n(C)c(=O)n7C6CCC(=O)NC6=O)CC5C4)CC3)nc21 (stereo not shown) [Compound 23] | 64 | 98 | 20 | 49 | 
CC1CCCC1N1C(=O)C2(CC2)c2cnc(NC3CCN(S(=O)(=O)N4CCCC45CCN(C(=O)CCCc4cccc6c4n(C)c(=O)n6C4CCC(=O)NC4=O)C5)CC3)nc21 (stereo not shown) [Compound 24] | 41 |  | 21 | -1 | 
CC1CCCC1N1C(=O)C2(CC2)c2cnc(NC3CCN(S(=O)(=O)N4CCC5(CCCN5C(=O)CCCc5cccc6c5n(C)c(=O)n6C5CCC(=O)NC5=O)C4)CC3)nc21 (stereo not shown) [Compound 25] | 29 |  | 25 | 15 | 
CC1CCCC1N1C(=O)C2(CC2)c2cnc(NC3CCN(S(=O)(=O)N4CC5(CCCCN5C(=O)CCCc5cccc6c5n(C)c(=O)n6C5CCC(=O)NC5=O)C4)CC3)nc21 (stereo not shown) [Compound 26] | 42 |  | 8 | 9 | 
CC1CCCC1N1C(=O)C2(CC2)c2cnc(NC3CCN(S(=O)(=O)N4CCN(C(=O)CCCc5cccc6c5n(C)c(=O)n6C5CCC(=O)NC5=O)CC4)CC3)nc21 (stereo not shown) [Compound 27] | 57 | 19 | 27 | 49 | 
CC1CCCC1N1C(=O)C2(CC2)c2cnc(NC3CCN(S(=O)(=O)N4CC5(CCCN(C(=O)CCCc6cccc7c6n(C)c(=O)n7C6CCC(=O)NC6=O)C5)C4)CC3)nc21 (stereo not shown) [Compound 28] | 42 |  | 8 | 8 | 
CC1CCCC1N1C(=O)C2(CC2)c2cnc(NC3CCN(S(=O)(=O)N4CC5(CN(C(=O)CCCc6cccc7c6n(C)c(=O)n7C6CCC(=O)NC6=O)C5)C4)CC3)nc21 (stereo not shown) [Compound 29] | 76 | 35 | 47 | 57 | 95.8
CC1CCCC1N1C(=O)C2(CC2)c2cnc(NC3CCN(S(=O)(=O)N4CC5(CCN(C(=O)CCCc6cccc7c6n(C)c(=O)n7C6CCC(=O)NC6=O)CC5)C4)CC3)nc21 (stereo not shown) [Compound 30] | 72 | 11 | 37 | 75 | 17.6
CC1CCCC1N1C(=O)C2(CC2)c2cnc(NC3CCN(S(=O)(=O)N4CC5C4CCN5C(=O)CCCc4cccc5c4n(C)c(=O)n5C4CCC(=O)NC4=O)CC3)nc21 (stereo not shown) [Compound 31] | 62 | 17 | 14 | 15 | 
CC1CCCC1N1C(=O)C2(CC2)c2cnc(NC3CCN(S(=O)(=O)N4CCC5(CCN(C(=O)CCCc6cccc7c6n(C)c(=O)n7C6CCC(=O)NC6=O)C5)C4)CC3)nc21 (stereo not shown) [Compound 32] | 59 | 86 | 22 | 41 | 
CC1CCCC1N1C(=O)C2(CC2)c2cnc(NC3CCN(S(=O)(=O)N4CCCN(C(=O)CCCc5cccc6c5n(C)c(=O)n6C5CCC(=O)NC5=O)CC4)CC3)nc21 (stereo not shown) [Compound 33] | 42 |  | 9 | 4 | 
CC1CCCC1N1C(=O)C2(CC2)c2cnc(NC3CCN(S(=O)(=O)N4CC(N(C)C(=O)CCCCCc5cccc6c5n(C)c(=O)n6C5CCC(=O)NC5=O)C4)CC3)nc21 (stereo not shown) [Compound 34] | 72 | 6 | 44 | 61 | 13.6
CC1CCCC1N1C(=O)C2(CC2)c2cnc(NC3CCN(S(=O)(=O)N4CCCC45CCN(C(=O)CCCCCc4cccc6c4n(C)c(=O)n6C4CCC(=O)NC4=O)C5)CC3)nc21 (stereo not shown) [Compound 35] | 34 |  | 21 | 17 | 
CC1CCCC1N1C(=O)C2(CC2)c2cnc(NC3CCN(S(=O)(=O)N4CC5(CCCCN5C(=O)CCCCCc5cccc6c5n(C)c(=O)n6C5CCC(=O)NC5=O)C4)CC3)nc21 (stereo not shown) [Compound 37] | 40 |  | 30 | 0 | 
CC1CCCC1N1C(=O)C2(CC2)c2cnc(NC3CCN(S(=O)(=O)N4CCN(C(=O)CCCCCc5cccc6c5n(C)c(=O)n6C5CCC(=O)NC5=O)CC4)CC3)nc21 (stereo not shown) [Compound 38] | 71 | 4 | 46 | 57 | 23
CC1CCCC1N1C(=O)C2(CC2)c2cnc(NC3CCN(S(=O)(=O)N4CC5(CCCN(C(=O)CCCCCc6cccc7c6n(C)c(=O)n7C6CCC(=O)NC6=O)C5)C4)CC3)nc21 (stereo not shown) [Compound 39] | 54 | 7 | 9 | 6 | 
CC1CCCC1N1C(=O)C2(CC2)c2cnc(NC3CCN(S(=O)(=O)N4CC5(CCN(C(=O)CCCCCc6cccc7c6n(C)c(=O)n7C6CCC(=O)NC6=O)CC5)C4)CC3)nc21 (stereo not shown) [Compound 40] | 69 | 5 | 29 | 44 | 
CC1CCCC1N1C(=O)C2(CC2)c2cnc(NC3CCN(S(=O)(=O)N4CCC5(CCN(C(=O)CCCCCc6cccc7c6n(C)c(=O)n7C6CCC(=O)NC6=O)C5)C4)CC3)nc21 (stereo not shown) [Compound 42] | 70 | 7 | 23 | 17 | 
CC1CCCC1N1C(=O)C2(CC2)c2cnc(NC3CCN(S(=O)(=O)N4CCCN(C(=O)CCCCCc5cccc6c5n(C)c(=O)n6C5CCC(=O)NC5=O)CC4)CC3)nc21 (stereo not shown) [Compound 43] | 60 | 16 | 62 | 32 | 
CC1CCCC1N1C(=O)C2(CC2)c2cnc(NC3CCN(S(=O)(=O)C4CCCN(C(=O)CCCCCc5cccc6c5n(C)c(=O)n6C5CCC(=O)NC5=O)C4)CC3)nc21 (stereo not shown) [Compound 44] | 39 |  | 44 | 5 | 
CC1CCCC1N1C(=O)C2(CC2)c2cnc(NC3CCN(S(=O)(=O)N4CCN(C(=O)CCCCCCCc5cccc6c5n(C)c(=O)n6C5CCC(=O)NC5=O)CC4)CC3)nc21 (stereo not shown) [Compound 46] | 74 | 5 | 35 | 44 | 
CC1CCCC1N1C(=O)C2(CC2)c2cnc(NC3CCN(S(=O)(=O)N4CCC5(CCN(C(=O)CCCCCCCc6cccc7c6n(C)c(=O)n7C6CCC(=O)NC6=O)C5)C4)CC3)nc21 (stereo not shown) [Compound 47] | 44 |  | 18 | 10 | 
CC1CCCC1N1C(=O)C2(CC2)c2cnc(NC3CCN(S(=O)(=O)C4CCCN(C(=O)CCCCCCCc5cccc6c5n(C)c(=O)n6C5CCC(=O)NC5=O)C4)CC3)nc21 (stereo not shown) [Compound 48] | 35 |  | 42 | 15 | 
CC1CCCC1N1C(=O)C2(CC2)c2cnc(NC3CCN(S(=O)(=O)N4CC(N(C)C(=O)CCCCCCCCCc5cccc6c5n(C)c(=O)n6C5CCC(=O)NC5=O)C4)CC3)nc21 (stereo not shown) [Compound 49] | 62 | 34 | 8 | 66 | 6.53
